Calls of active or inactive are those of the source. No cut-off for these calls is given here. Square brackets hold non-standard residues; d marks the D form. Peptide text beside a SMILES is read from it. * marks the point of attachment. Sta = CC(C)C[C@H](N)[C@@H](O)CC(=O)O; NMe2Val = CC(C)[C@@H](C(=O)*)N(C)C; dNMeF = CN[C@H](Cc1ccccc1)C(=O)O; dHiv = CC(C)[C@@H](O)C(=O)O; Hiv = CC(C)[C@H](O)C(=O)O
How the values were obtained:
[1] = system: Dendritic cell; experiment: (§1) Inhibition of MHC class 2-dependent antigen processing in DO11.10 TCR transgenic mouse spleen CD11+ dendritic cells assessed as inhibition of whole ovalbumin-induced CD4+ T cell proliferation incubated for 1 hr prior to whole ovalbumin-challenge measured after 72 hrs by [3H]thymidine incorporation assay; assay type: functional, tissue-based
[2] = system: Dendritic cell; experiment: as §1, with “ovalbumin 323 to 339-induced” for “whole ovalbumin-induced”, “ovalbumin 323 to 339 challenge” for “whole ovalbumin-challenge”; assay type: functional, tissue-based

**Q.** Which results are given for `COC(=O)[C@@H]1CCCN1C(=O)[C@@H](Cc1ccccc1)N(C)C(=O)[C@H](C)NC(=O)[C@@H](NC(=O)C[C@H](O)[C@H](CC(C)C)NC(=O)[C@H](CC(N)=O)NC(=O)[C@H](CC(C)C)NC(=O)[C@H](OC(=O)[C@@H](OC(=O)[C@H](C(C)C)N(C)C)C(C)C)C(C)C)[C@@H](C)O` (NMe2Val-[Hiv][dHiv]LN[Sta]TA[dNMeF]P-OMe)?
**A.** inhibition [1]: inactive; inhibition [2]: inactive
